According to patent US11737466B2, “Method of improving the ability of plants to resistance diseases” (National Taiwan University, priority 2019, dated 2023):

Tested on: Bacillus amyloliquefaciens WF02
Assay: antagonistic assay (inhibition zone) on Bacillus amyloliquefaciens WF02 plate
Format: cell-based
Details: 100,000 ppm, 20 μL, 37° C., 48 hours, positive control, read-out: diameter of inhibition zone on WF02 plate
Text: To be used as leveling agents for the biological preparation, in the embodiment of the present invention, it is necessary to confirm that the Bidens pilosa extract of the present invention without the effect of inhibiting the growth of the Bacillus amyloliquefaciens WF02 of the present invention, so antagonistic assay was used; wherein ampicillin is known with the effect on inhibiting the growth of the Bacillus amyloliquefaciens, therefore, it was used as a positive control group. First, the Bacillus amyloliquefacien WF02 of the present invention was cultured in the above method and 100 μL of a bacterial solution with an OD600 value of 0.3, which approximately contains 10^8 CFU/mL, was uniformly applied to two agarose plates (diameter 9 cm) and a plurality of circular sterile filter papers (diameter 8 mm) was placed thereon; wherein one plate was for testing the higher concentration (125,000-200,000 ppm) of the Bidens pilosa of the present invention, and the other was for the lower concentration (300-2,000 ppm). […]

**Q.** How did the zone of inhibition at 100000 ppm turn out when `CC1(C)S[C@@H]2[C@H](NC(=O)[C@H](N)c3ccccc3)C(=O)N2[C@H]1C(=O)O` [ampicillin] was run?
**A.** Its zone of inhibition at 100000 ppm is roughly 18.4 mm.
